Measured values taken from PubChem BioAssay AID1351 (Sanford-Burnham Center for Chemical Genomics, 2008).
Several values for one entry are separate records, joined by “and”; a condition that tells them apart may be missing. Equal entries are not always repeated.

System: PPC-1 thapsigargin-induced death, ATPlite luminescence, 24 h
Test: ER stress death rescue in PPC-1 prostate cells – cell-based, human prostate cancer PPC-1, ATP luminescence, SAR follow-up (AID 1351)
Conditions: at 25 µM, stronger effect = higher value
[1] = measured here: survival at thapsigargin 15 uM
[2] = measured here: survival at thapsigargin 20 uM
[3] = survival at lower thapsigargin concentration

SMILES: CCOc1cccc(C2Nc3ccccc3NC3=C2C(=O)CC(c2ccc(OC)cc2)C3)c1 (centres undefined)
- survival: 39%
- survival [1]: 14%
- survival [2]: 15%
- survival [3]: 81% and 87%

SMILES: CSc1ccc(C2Nc3ccccc3NC3=C2C(=O)CC(c2ccccc2)C3)cc1 (centres undefined)
- survival: 89%
- survival [1]: 52%
- survival [2]: 26%
- survival [3]: 95% and 105%

SMILES: COc1ccc(C2CC(=O)C3=C(C2)Nc2ccccc2NC3c2cccc(Oc3ccccc3)c2)cc1OC (centres undefined)
- survival: 89%
- survival [1]: 95%
- survival [2]: 69%
- survival [3]: 91% and 92%

SMILES: CC1(C)CC(=O)C2=C(C1)Nc1ccccc1NC2c1ccc(-c2ccccc2)cc1 (centres undefined)
- survival: 90%
- survival [1]: 86%
- survival [2]: 87%
- survival [3]: 81% and 101%

SMILES: COc1ccc(C2CC(=O)C3=C(C2)Nc2ccccc2NC3c2cccc(C(F)(F)F)c2)cc1OC (centres undefined)
- survival: 94%
- survival [1]: 99%
- survival [2]: 69%
- survival [3]: 93% and 94%

SMILES: COc1ccc(C2CC(=O)C3=C(C2)Nc2ccccc2NC3c2cc(C)ccc2C)cc1 (centres undefined)
- survival: 88%
- survival [1]: 83%
- survival [2]: 32%
- survival [3]: 85% and 91%

SMILES: CCCOc1ccc(C2Nc3ccccc3NC3=C2C(=O)CC(c2ccc(OC)c(OC)c2)C3)cc1 (centres undefined)
- survival: 90%
- survival [1]: 75%
- survival [2]: 37%
- survival [3]: 82% and 81%

SMILES: O=C1CC(c2ccccc2)CC2=C1C(c1c(F)cccc1Cl)Nc1ccccc1N2 (centres undefined)
- survival: 90%
- survival [1]: 35%
- survival [2]: 18%
- survival [3]: 86% and 92%

SMILES: CCOc1cc(C2Nc3ccccc3NC3=C2C(=O)CC(c2ccc(OC)cc2)C3)cc(Cl)c1O (centres undefined)
- survival: 62%
- survival [1]: 11%
- survival [2]: 8.5%
- survival [3]: 82% and 90%

SMILES: COc1ccc(C2CC(=O)C3=C(C2)Nc2ccccc2NC3c2ccccc2C(F)(F)F)cc1OC (centres undefined)
- survival: 105%
- survival [1]: 108%
- survival [2]: 56%
- survival [3]: 97% and 102%

SMILES: COc1ccc(C2CC(=O)C3=C(C2)Nc2ccccc2NC3c2cccc(Br)c2)cc1OC (centres undefined)
- survival: 85%
- survival [1]: 102%
- survival [2]: 59%
- survival [3]: 94% and 100%
